A short description of the data set: gradient 5% acetonitrile 3 min, to 50% in 2 min, to 85% in 15 min, held 3 min, 100 µL/min. The settings on record: column: Zorbax Extend-C18 2.1 x 50 mm; eluents: water / acetonitrile, 0.1% formic acid. The essentials: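 Standards, all pure, were combined into mixtures of ~100 molecules and run at 100 μL/min on a Zorbax Extend-C18 column (2.1 × 50 mm, 1.8 μm) with water and acetonitrile, each containing 0.1% formic acid. A coupled quadrupole time-of-flight mass spectrometer operated in positive and negative ionization mode. Retention time values come from computationally picked adduct peaks, each inspected manually.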
As for `CCc1nnc(-c2cn(CC(=O)NCc3ccc(C)o3)c3ccccc23)o1`, the RP-LC retention time was found to be 740 s.
`O=C(Nc1ccccc1)C(=O)c1ccc[nH]1` registered an RP-LC retention time of 812 s.
`Cc1nc(Nc2ccc(Br)cn2)sc1C(=O)N1CCN(C(C)C)CC1`: the RP-LC retention time was 630 s.
Compound `COC(=O)Cn1c(C2CC(=O)N(c3ccccc3OC)C2)nc2ccccc21` (stereo unspecified) displayed an RP-LC retention time of 674 s.
To `Cn1cc(C(=O)NCc2ccc3c(c2)OCO3)c2cccnc21` belongs 706 s.
`Cn1nc(-c2nnc(-c3ccc(F)cc3)o2)c2c1CCN(S(=O)(=O)c1cccc(F)c1)C2` registered an RP-LC retention time of 963 s.
For `Cc1nc(-c2csc(S(=O)(=O)N3CCC(C(=O)N4CCCCCC4)CC3)c2)no1`, the RP-LC retention time was 859 s.
`COc1ccc(C)cc1NC(=O)N1CCC2(CC1)NC(=O)c1cccc(Cl)c1N2`: the RP-LC retention time turned out to be 819 s.
Compound `COc1ccc(C2(C(=O)N3[C@H]4CC[C@@H]3c3cnc(C)nc3C4)CCCCC2)cc1` had an RP-LC retention time of 812 s.
`Cc1cc(C)c(NC(=O)Cn2nc3c(N4CCCCCC4)nccn3c2=O)c(C)c1` showed an RP-LC retention time of 757 s.
To `O=C(NC1CCN(c2cc(N3CCCC3)cnn2)C1)C1CC1` (stereo unspecified) belongs 578 s; to `CN(C)c1ccc(C(=O)N2CCC(COc3ccc(C(=O)NC4CC4)cc3)CC2)cc1`, 779 s.
In turn, `CC(C)N1C(=O)c2cccnc2Sc2cc(C(=O)NC3CC3)ccc21` displayed an RP-LC retention time of 702 s.
Turning to `COC[C@@H]1CN(Cc2ccc3[nH]ccc3c2)C[C@H]1c1nc(C)no1`, the RP-LC retention time turned out to be 610 s.
As to `O=C(c1n[nH]c2c1CCCC2)N1CCCCC1`, the RP-LC retention time was 695 s.
`CN1C(=O)CCc2cc(NC(=O)c3ccncc3)ccc21` had an RP-LC retention time of 579 s.
With `CCOC(=O)c1nc(NCc2cc(OC)ccc2OC)c2ccccc2n1`, the RP-LC retention time is 768 s.
For `Cn1c(N2CCCC(C(=O)N3CCN(c4ncccn4)CC3)C2)cc(=O)n(C)c1=O` (stereo unspecified), the RP-LC retention time turned out to be 618 s.
In turn, `O=C(NCc1ccco1)C1CN(C(=O)c2ccccc2)CC12CCCCC2` (stereo unspecified) had an RP-LC retention time of 795 s.
On to `CC(C)CCNC(=O)N1C[C@@H]2CCCN3CCC[C@@H]([C@H]23)[C@H]1CCCC(=O)NCC1CC1`, for which the RP-LC retention time is 625 s.
For the compound `Fc1ccc(-c2nc3ccccc3[nH]2)cc1`, the RP-LC retention time amounted to 557 s.
In turn, `O=C(Nc1cc(-c2ccsc2)no1)c1ccc(Cl)s1` gave an RP-LC retention time of 1030 s.
The compound `CC1CCN(c2cc(-n3cnc(C(=O)Nc4ccc(N(C)C)cc4)c3)ncn2)CC1` showed an RP-LC retention time of 751 s.
Turning to `CCCNC(=O)C1CCCN(S(=O)(=O)c2cc(-c3noc(C4CCCC4)n3)cs2)C1` (stereo unspecified), the RP-LC retention time came out at 1050 s.
The compound `COCCC(=O)N1CCC(N2C(=O)C(OC)C23CCOCC3)CC1` (stereo unspecified) displayed an RP-LC retention time of 555 s.
Then `CCOc1cc(=O)n2c(c1C(=O)OCc1cccc(C)c1)CCCC2`, with 926 s; and `O=C(CN1C(=O)CCCc2cc(S(=O)(=O)N3CCCCCC3)ccc21)NCc1ccccc1`, with 905 s.
In the case of `Cc1ccc(C)c(NC(=O)CSc2nnc3c4cc(-c5ccc(C)c(C)c5)nn4ccn23)c1`, the RP-LC retention time came to 778 s.
With `O=C(c1cc2ccccc2[nH]1)N1CCC(c2noc(C3CC3)n2)C1` (stereo unspecified), the RP-LC retention time is 1440 s.
In the case of `CCN(c1cccc(C)c1)S(=O)(=O)c1cc2n(c1)CCCN(C)C2=O`, the RP-LC retention time worked out at 783 s.
The compound `O=C(Cn1c(=O)c2cccn2c2ccc(F)cc21)N1CCOCC1` showed an RP-LC retention time of 686 s.
`CCCCCCN1CCN(c2cccc(Cl)c2)CC1` showed an RP-LC retention time of 737 s.
`CNC(=O)c1cc(N2CCCC2)nc2ccc(F)cc12` gave an RP-LC retention time of 591 s.
On to `O=C(NCC1CCCO1)C(=O)Nc1ccc(OC(F)(F)F)cc1` (stereo unspecified), for which the RP-LC retention time worked out at 834 s.
Turning to `O=S(=O)(CCCOc1ccc(F)cc1)NC1CC1`, the RP-LC retention time was 785 s.
With `CC(C)(C)c1ccc(O)c(NC(=O)c2cn(-c3ccc(S(=O)(=O)N4CCCCC4)cc3)cn2)c1`, the RP-LC retention time came out at 1100 s.
`COC(=O)c1c(C)[nH]c(C(=O)N2CCCC(C(=O)NCc3ccc(C)cc3)C2)c1C` (stereo unspecified): the RP-LC retention time is 754 s.
Then `CC(C)c1ccc(S(=O)(=O)N2CCC(C(=O)NCc3cscn3)CC2)cc1`, with 805 s.
`Cc1cnc(C(=O)NC2C[C@H]3CC[C@@H](C2)N3C(=O)CCC2CCCC2)cn1` (stereo partly specified): the RP-LC retention time stood at 762 s.
On to `O=C(Nc1ccccc1)N1CCC(N(C(=O)C2CC2)C2CCOCC2)CC1`, for which the RP-LC retention time was 697 s.
To `CCc1ccc(-c2cc3c(=O)n(Cc4noc(CN5CCCCC5C)n4)ccn3n2)cc1` (stereo unspecified) belongs 761 s; to `CN(Cc1cc(Cl)ccc1F)C1CCc2nnc(C3CCOCC3)n2CC1` (stereo unspecified), 592 s.
Consider `Cc1ccccc1C(=O)N1CCC2(C1)C(=O)N(C)c1ccccc12` (stereo unspecified), for which the RP-LC retention time worked out at 767 s.
`CCn1c(=O)c(N2CCC(C(=O)NCCc3c[nH]c4ccc(OC)cc34)CC2)nc2cccnc21` displayed an RP-LC retention time of 864 s.
In the case of `CCN1CCCC1CNC(=O)Cn1nc(C)n2nc(-c3ccccc3)cc2c1=O` (stereo unspecified), the RP-LC retention time is 635 s.
The compound `CCc1csc(-c2ccc(S(=O)(=O)NC(CC)c3cccs3)s2)n1` (stereo unspecified) returned an RP-LC retention time of 1150 s.
Turning to `Cc1cccc(NC(=O)Cn2cnc3nc(N4CCC(C(=O)NC5CC5)CC4)sc3c2=O)c1`, the RP-LC retention time was 658 s.
`O=C(NCc1cccnc1)c1cccn1Cc1noc(-c2ccc(Cl)cc2)n1` had an RP-LC retention time of 701 s.
For `C=CCn1c(C)c(CC(=O)NCC2CCCO2)c(=O)n2nc(-c3ccccc3)nc12` (stereo unspecified), the RP-LC retention time turned out to be 717 s.
Then `COC(=O)C1=CN(c2cccc(F)c2)c2cc(F)ccc2S1(=O)=O`, with 869 s; and `COc1ccc2c(c1)[C@H]1OCCC[C@H]1C(c1ccc(C(=O)O)cc1)N2` (stereo partly specified), with 820 s.
Consider `CCn1ccc(C(=O)N2CC(c3nc(CCOCC4CC4)no3)C2)n1`, for which the RP-LC retention time was 725 s.
In turn, `CC(=O)Nc1ccc(NC(=O)C2CC(=O)N(CCc3c[nH]c4ccc(F)cc34)C2)cc1` (stereo unspecified) came in with an RP-LC retention time of 675 s.
On to `Cc1ccc(NC(=O)C2CCN(S(C)(=O)=O)c3ccccc3O2)cc1C` (stereo unspecified), for which the RP-LC retention time is 945 s.
To `Cc1nc(-c2ccccc2)cc2nn(CC(=O)Nc3cc(F)cc(F)c3)c(=O)n12` belongs 998 s; to `Cc1ccc(NC(=O)Nc2cccn3nc(C(C)C)nc23)cc1`, 964 s.
For the compound `CCCOC(=O)C1=CN(C)S(=O)(=O)N=C1C`, the RP-LC retention time was 796 s.
With `COc1cc(CN2CCCC2c2cc(C)on2)cc(OC)c1O` (stereo unspecified), the RP-LC retention time is 582 s.
In turn, `COc1ccc(-c2nc3ncccn3c2Nc2ccc(OC)c(OC)c2)cc1` had an RP-LC retention time of 640 s.
Turning to `CCn1ccc2sc(C)c(C(=O)NC3CCCC3)c2c1=O`, the RP-LC retention time was 733 s.
Take `Cc1nc(-c2ccncc2)nc2c1CCC(=O)N2CCN1CCCC1`: the RP-LC retention time was 533 s.
Compound `COc1ccc(NC(=O)N(C)CC2CCOCC2)cc1F` came in with an RP-LC retention time of 682 s.
The compound `COc1ccc(OCCN2CC(=O)N(c3ccc(C)c(C)c3)[C@@H]3CS(=O)(=O)C[C@@H]32)cc1` registered an RP-LC retention time of 859 s.
The compound `COc1ccc(-n2ccc(=O)c(-c3nc(-c4ccccc4Cl)no3)n2)cc1` came in with an RP-LC retention time of 877 s.
As to `O=C1CC(c2noc(CN3CCN(c4ccccn4)CC3)n2)CN1c1ccc(F)cc1` (stereo unspecified), the RP-LC retention time amounted to 576 s.
As to `CCc1nn2c(CNC(=O)C3CCN(C(C)=O)CC3)c(-c3ccccc3)nc2s1`, the RP-LC retention time is 664 s.
As for `CC(C)NC(=O)C1=CCN(C(=O)c2cccc(F)c2)CC1`, the RP-LC retention time came out at 712 s.
For the compound `Cc1nc2sccn2c1-c1nnc(SCc2ccc([N+](=O)[O-])cc2)n1C`, the RP-LC retention time worked out at 626 s.
Compound `Cc1cccc(-c2noc(-c3ccc(N4CCN(c5ncccn5)CC4)nc3)n2)c1` displayed an RP-LC retention time of 1310 s.
To `CN1Cc2ccccc2-n2ccnc2C12CCN(C(=O)Cc1cccc(F)c1)CC2` belongs 666 s; to `Cc1ccc(CCNC(=O)C2CCCN2S(=O)(=O)c2ccc3c(c2)C(C)(C)C(=O)N3C)cc1` (stereo unspecified), 896 s; to `Cc1nn(C)c(C)c1S(=O)(=O)N1[C@H]2CC[C@@H]1c1cnc(-c3ccc(F)cc3)nc1C2`, 924 s.
`CCc1noc([C@@H]2CC(F)(F)CN2C(=O)c2ccoc2C)n1` yielded an RP-LC retention time of 833 s.
`COC(=O)c1cccc(Nc2c(-c3ccc(C)cc3)nc3cnccn23)c1` had an RP-LC retention time of 849 s.
The compound `O=C(COc1ccccc1)N1CCN(c2nc(CN3CCCC3)cs2)CC1` displayed an RP-LC retention time of 623 s.
To `COc1ccc2c(CCN)c[nH]c2c1` belongs 565 s; to `O=C(CCC1CCN(c2cc(NC3CC3)ncn2)CC1)NCCc1cccs1`, 656 s.
As for `Cc1cc(C)cc(NC(=O)N2CCC(N3CCN(Cc4ccc(F)cc4)C(=O)C3=O)CC2)c1`, the RP-LC retention time was found to be 788 s.
The compound `COc1ccc(S(=O)(=O)N2CCC(c3noc(-c4ccccc4C)n3)CC2)cc1` returned an RP-LC retention time of 1150 s.
Regarding `CCCN1C(=O)c2cc(S(=O)(=O)Nc3cc(F)ccc3C)ccc2Oc2cccnc21`, the RP-LC retention time amounted to 1120 s.
As to `Cc1ccsc1CCNC(=O)C1CCN(S(=O)(=O)c2ccc3c(c2)sc(=O)n3C)CC1`, the RP-LC retention time was found to be 872 s.

The record behind these values is the METLIN SMRT retention time set (Domingo-Almenara et al. 2019).
